Data set [1] concerns Pseudomonas aeruginosa. Description: Antibacterial activity against Pseudomonas aeruginosa 9027 assessed as growth inhibition incubated for 12 to 15 hrs by broth microdilution method. Format: functional. Particulars: time 12-15 hrs.
Data set [2] has as its system Pseudomonas aeruginosa. Description: Antibacterial activity against Pseudomonas aeruginosa ATCC BAA-2108 assessed as growth inhibition incubated for 12 to 15 hrs by broth microdilution method. The format is functional. The settings on record: time 12-15 hrs. For orientation: In broth dilution the organism is exposed to a series of concentrations in liquid medium.
In data set [3] the test system is Pseudomonas aeruginosa. Description: Antibacterial activity against Pseudomonas aeruginosa ATCC BAA-2109 assessed as growth inhibition incubated for 12 to 15 hrs by broth microdilution method. Format: functional. Particulars: time 12-15 hrs.
Data set [4] has as its system Pseudomonas aeruginosa. Nature of the data set: Antibacterial activity against Pseudomonas aeruginosa efflux knockout GKCW120 (Pdelta6) assessed as growth inhibition incubated for 12 to 15 hrs by broth microdilution method. The format is functional. Particulars: time 12-15 hrs.
Data set [5] relates to Pseudomonas aeruginosa. Nature of the data set: Antibacterial activity against Pseudomonas aeruginosa ATCC BAA-2110 assessed as growth inhibition incubated for 12 to 15 hrs by broth microdilution method. Format: functional. The settings on record: time 12-15 hrs.
Data set [6] is described as follows: Selectivity ratio of IC50 for Pseudomonas aeruginosa 9027 electron transport chain to IC50 for Pseudomonas aeruginosa ATP synthase. The format is toxicity.
The nature of data set [7]: Inhibition of Pseudomonas aeruginosa 9027 electron transport chain in inverted membrane vesicles assessed as fluorescence quenching using amino-6-chloro-2-methoxyacridine. Format: cell membranes.
Data set [8] can be described thus: Inhibition of Pseudomonas aeruginosa ATP synthase expressed in Escherichia coli DK8/pASH20 inverted membrane vesicles by luciferin/luciferase luminescence assay. Format: cell membranes, Membrane vesicle.
Data set [9] in a line: Inhibition of Escherichia coli electron transport chain in inverted membrane vesicles. The format is cell membranes.
A short description of data set [10]: Solubility of the compound in antibacterial activity assay medium. Format: physicochemical.

≈ marks a conversion by molar mass, not a printed value.

For the compound GENTAMICIN, the MIC>85 is 2 mg/L in the data set on Pseudomonas aeruginosa [1]; 16 mg/L with Pseudomonas aeruginosa [2]; 2 mg/L with Pseudomonas aeruginosa [3]; greater than 4 mg/L in the data set on Pseudomonas aeruginosa [4]; 4 mg/L with Pseudomonas aeruginosa [5].
By IC50 is commonly meant the concentration at which inhibition is half-maximal. Turning to `CN(C)CCCCNCc1cc2ccccc2nc1SCc1ccccc1`, the “Ratio IC50” value in data set [6] amounted to 26. The IC50 in [7] was 26 mg/L (≈ 68.5 µM); in data set [8], 1 mg/L (≈ 2.63 µM).
On to `CCN1CCC(CCNCc2cc3ccccc3nc2SCc2ccccc2)CC1`, for which the “Ratio IC50” value in [6] worked out at 26. Further, the IC50 in [7] was 26 mg/L (≈ 62 µM); in data set [8], 1 mg/L (≈ 2.38 µM).
On the same counts, the results for `CN(C)CCCNCc1cc2ccccc2nc1SCc1ccccc1` are 7, 44 mg/L (≈ 120 µM) and 6 mg/L (≈ 16.4 µM).
For the compound `CSc1nc2ccccc2cc1CNCc1ccc(N(C)C)cc1`, in data set [8], the IC50 was determined as 5 mg/L (≈ 14.8 µM).
In turn, `CSc1nc2ccccc2cc1CNCCc1cnc[nH]1` returned an IC50 in data set [8] of 16 mg/L (≈ 53.6 µM).
Take `CSc1nc2ccccc2cc1CNCCc1cccn1C`: the IC50 in data set [8] is 5 mg/L (≈ 16.1 µM).
The compound `CSc1nc2ccccc2cc1CNCCC1CCN(C2CCCC2)CC1` had an IC50 in [8] of 21 mg/L (≈ 54.7 µM).
As for `c1ccc(CSc2nc3ccccc3cc2CNCCc2cnc[nH]2)cc1`, the results for the IC50 in data set [7], in [9] and in [8] were 7 mg/L (≈ 18.7 µM), 14 mg/L (≈ 37.4 µM) and 2 mg/L (≈ 5.34 µM), respectively.
On to `CCN1CCC(CCNCc2cc3ccccc3nc2SC)CC1`, for which the IC50 in [8] was determined as 39 mg/L (≈ 114 µM).
For the compound `CN(C)CCCCCNCc1cc2ccccc2nc1SCc1ccccc1`, in data set [6], the “Ratio IC50” value was found to be 28. Besides, the IC50 in data set [7] was found to be 57 mg/L (≈ 145 µM); in data set [8], 2 mg/L (≈ 5.08 µM).
`CN(C)Cc1ccc(CNCc2cc3ccccc3nc2SCc2ccccc2)cc1`: the “MIC>85” value with Pseudomonas aeruginosa [1] is greater than 128 mg/L; with Pseudomonas aeruginosa [2] it was 64 mg/L (≈ 150 µM); in the data set on Pseudomonas aeruginosa [3] it was greater than 128 mg/L; in the data set with Pseudomonas aeruginosa [4], 16 mg/L (≈ 37.4 µM); in the data set with Pseudomonas aeruginosa [5], greater than 128 mg/L. Besides, the “Ratio IC50” value in data set [6] is 12. The IC50 in [7] was determined as 27 mg/L (≈ 63.1 µM); in [8], 2.3 mg/L (≈ 5.38 µM).
`Cn1cccc1CCNCc1cc2ccccc2nc1SCc1ccccc1` returned a half-maximal inhibitory concentration (IC50) in data set [8] of 4 mg/L (≈ 10.3 µM).
As for `c1ccc(CSc2nc3ccccc3cc2CNCCC2CCN(C3CCCC3)CC2)cc1`, in data set [6], the “Ratio IC50” value was determined as 14. The results for the IC50 in data set [7] and in [8] were 14 mg/L (≈ 30.5 µM) and 1 mg/L (≈ 2.18 µM), respectively.
`CSc1nc2ccccc2cc1CNCCCCCN(C)C` registered an IC50 in data set [8] of 19 mg/L (≈ 59.8 µM).
With `CSc1nc2ccccc2cc1CNCCCCN(C)C`, the IC50 in data set [8] is 68 mg/L (≈ 224 µM).
As for `CSc1nc2ccccc2cc1CNCc1ccc(CN(C)C)cc1`, the “MIC>85” value in the data set with Pseudomonas aeruginosa [1] is greater than 256 mg/L; in the data set on Pseudomonas aeruginosa [2], 128 mg/L (≈ 364 µM); in the data set on Pseudomonas aeruginosa [3] it was 256 mg/L (≈ 728 µM); in the data set on Pseudomonas aeruginosa [4] it was 64 mg/L (≈ 182 µM); in the data set with Pseudomonas aeruginosa [5], greater than 256 mg/L. Also, the “Ratio IC50” value in data set [6] is listed as 1. For the same compound, the IC50 in data set [7] was 29 mg/L (≈ 82.5 µM); in [8], 30 mg/L (≈ 85.3 µM).
The solubility is the concentration that dissolves in the medium under given conditions. `CN(C)c1ccc(CNCc2cc3ccccc3nc2SCc2ccccc2)cc1` showed a solubility in data set [10] greater than 0.016 mg/mL.
For `CSc1nc2ccccc2cc1CNCCc1nc(C)cc(C)n1`, the IC50 in data set [8] turned out to be 67 mg/L (≈ 198 µM).
`CSc1nc2ccccc2cc1CNCCCN(C)C`: in data set [8], the IC50 came out at 43 mg/L (≈ 149 µM).
Compound `Cc1cc(C)nc(CCNCc2cc3ccccc3nc2SCc2ccccc2)n1` yielded an IC50 in [8] of 3 mg/L (≈ 7.24 µM).

Source of the values: ChEMBL document CHEMBL5357010, “Amine Basicity of Quinoline ATP Synthase Inhibitors Drives Antibacterial Activity against Pseudomonas aeruginosa” (ACS Med Chem Lett, 2024).
